The record followed here is publication PMC5564600 (Oncotarget, 2017).

One assay concerns the target T1, ERBB3 (Homo sapiens, UniProt P21860).
T1 construct: purchased Ambit Biosciences (scanMAXX KINOMEscan)
In words: KINOMEscan, ERBB3. In kind it is binding. Particulars: for remaining binding at 1 µM / remaining binding at 10 µM: ERBB3; for remaining binding at 1 µM: read-out: % of control at 1 µM; for remaining binding at 10 µM: read-out: % of control at 10 µM.

In the next assay the target is T2, PIK3C2G (Homo sapiens, UniProt O75747).
T2 construct: purchased Ambit Biosciences (scanMAXX KINOMEscan)
T2 sequence (O75747 1-1486): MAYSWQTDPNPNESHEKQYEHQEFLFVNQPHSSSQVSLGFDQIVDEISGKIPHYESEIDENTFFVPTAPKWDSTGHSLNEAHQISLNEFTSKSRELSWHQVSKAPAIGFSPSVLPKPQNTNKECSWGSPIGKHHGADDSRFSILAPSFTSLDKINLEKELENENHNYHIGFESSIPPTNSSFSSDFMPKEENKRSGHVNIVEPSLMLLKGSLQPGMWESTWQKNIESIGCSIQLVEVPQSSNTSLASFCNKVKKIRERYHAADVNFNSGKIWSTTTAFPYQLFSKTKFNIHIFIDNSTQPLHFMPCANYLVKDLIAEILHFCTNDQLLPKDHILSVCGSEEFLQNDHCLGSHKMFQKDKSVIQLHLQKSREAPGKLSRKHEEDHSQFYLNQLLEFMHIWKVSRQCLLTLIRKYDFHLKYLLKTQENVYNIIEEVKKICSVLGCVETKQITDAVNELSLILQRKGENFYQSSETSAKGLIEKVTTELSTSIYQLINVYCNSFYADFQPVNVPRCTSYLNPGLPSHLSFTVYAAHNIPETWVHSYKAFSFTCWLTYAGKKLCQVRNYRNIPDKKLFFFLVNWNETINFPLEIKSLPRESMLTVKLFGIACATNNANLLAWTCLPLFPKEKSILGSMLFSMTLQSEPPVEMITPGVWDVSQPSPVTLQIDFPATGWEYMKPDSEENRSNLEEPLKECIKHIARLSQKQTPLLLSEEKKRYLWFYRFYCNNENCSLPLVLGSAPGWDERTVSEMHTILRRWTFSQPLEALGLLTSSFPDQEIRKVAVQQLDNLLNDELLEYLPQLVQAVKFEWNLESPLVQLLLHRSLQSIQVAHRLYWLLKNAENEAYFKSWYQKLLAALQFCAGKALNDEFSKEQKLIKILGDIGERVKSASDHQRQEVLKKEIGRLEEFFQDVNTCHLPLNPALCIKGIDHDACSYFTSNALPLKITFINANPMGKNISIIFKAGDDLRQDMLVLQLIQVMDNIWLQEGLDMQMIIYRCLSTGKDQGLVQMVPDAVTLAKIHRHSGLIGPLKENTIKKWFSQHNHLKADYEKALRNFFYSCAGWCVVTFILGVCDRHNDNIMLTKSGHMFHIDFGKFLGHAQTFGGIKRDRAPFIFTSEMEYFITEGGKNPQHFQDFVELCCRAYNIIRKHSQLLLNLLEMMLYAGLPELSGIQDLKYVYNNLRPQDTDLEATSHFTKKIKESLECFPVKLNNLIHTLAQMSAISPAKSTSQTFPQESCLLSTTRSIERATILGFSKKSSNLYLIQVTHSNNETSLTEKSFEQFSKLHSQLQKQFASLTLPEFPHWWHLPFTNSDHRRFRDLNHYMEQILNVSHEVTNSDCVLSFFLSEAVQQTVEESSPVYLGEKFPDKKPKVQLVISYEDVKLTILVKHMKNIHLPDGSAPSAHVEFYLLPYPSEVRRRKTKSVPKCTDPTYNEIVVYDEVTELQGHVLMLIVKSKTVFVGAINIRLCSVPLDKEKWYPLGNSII
In words: KINOMEscan, PIK3C2G. In kind it is binding. Particulars: for remaining binding at 1 µM / remaining binding at 10 µM: kinase PIK3C2G; for remaining binding at 1 µM: read-out: % of control at 1 µM; for remaining binding at 10 µM: read-out: % of control at 10 µM.

The next assay addresses T3, CLK1 (Homo sapiens, UniProt P49759).
T3 construct: purchased Ambit Biosciences (scanMAXX KINOMEscan)
Kind of assay: KINOMEscan, CLK1. In kind it is binding. Particulars: for remaining binding at 1 µM: read-out: % of control at 1 µM.

Assay [1] addresses panel of 442 kinases (Homo sapiens, UniProt P42336, E545K). Kind of assay: biochemical. It counts as binding. Particulars: kinase PIK3CA(E545K); 1 µM; read-out: % of control at 1 µM.
The target of assay [2] is panel of 442 kinases (Homo sapiens, UniProt P42336, I800L). In words: biochemical. It counts as binding. Particulars: kinase PIK3CA(I800L); 1 µM; read-out: % of control at 1 µM.
Assay [3] addresses panel of 442 kinases (Homo sapiens, UniProt P42336, E545A). Kind of assay: biochemical. In kind it is binding. The note with it: kinase PIK3CA(E545A); 1 µM; read-out: % of control at 1 µM.
Assay [4] addresses panel of 442 kinases (Homo sapiens, UniProt P42336, E542K). In words: biochemical. It counts as binding. The note with it: kinase PIK3CA(E542K); 1 µM; read-out: % of control at 1 µM.
Assay [5] concerns the target panel of 442 kinases (Homo sapiens, UniProt P42336, M1043I). Kind of assay: biochemical. Particulars: kinase PIK3CA(M1043I); 1 µM; read-out: % of control at 1 µM. It counts as binding.
The target in assay [6] is panel of 442 kinases (Homo sapiens, UniProt P42336, H1047L). In words: biochemical. It counts as binding. Particulars: kinase PIK3CA(H1047L); 1 µM; read-out: % of control at 1 µM.
Assay [7] concerns the target panel of 442 kinases (Homo sapiens, UniProt P42336, C420R). In words: biochemical. In kind it is binding. The note with it: kinase PIK3CA(C420R); 1 µM; read-out: % of control at 1 µM.
The target of assay [8] is panel of 442 kinases (Homo sapiens, UniProt P42336, H1047Y). Kind of assay: biochemical. The note with it: kinase PIK3CA(H1047Y); 1 µM; read-out: % of control at 1 µM. In kind it is binding.
Assay [9] concerns the target panel of 442 kinases (Homo sapiens, UniProt P42336, Q546K). In words: biochemical. In kind it is binding. The note with it: kinase PIK3CA(Q546K); 1 µM; read-out: % of control at 1 µM.
For assay [10], the target named is panel of 442 kinases (Homo sapiens, UniProt P42336). In words: biochemical. In kind it is binding. Particulars: kinase PIK3CA; 1 µM; read-out: % of control at 1 µM.
The next assay deals with PI3Kγ (Homo sapiens, UniProt P48736). In words: PI3K (human) HTRF assay, PI3Kγ. In kind it is biochemical. The note with it: ATP 10 μM, mean ± SEM.
The target of the next assay is mTOR (Homo sapiens, UniProt P42345). Kind of assay: SelectScreen Z'LYTE kinase assay (Invitrogen), mTOR. In kind it is biochemical. Particulars: determined by Invitrogen, mean ± SEM, n=2.
The target in assay [11] is panel of 442 kinases (Homo sapiens, UniProt Q16584). In words: biochemical. In kind it is binding. The note with it: kinase MLK3; 1 µM; read-out: % of control at 1 µM.

Bounds are passed on as bounds.

As for `Nc1cc(C(F)(F)F)c(-c2cc(N3CCOCC3)nc(N3CCOCC3)n2)cn1` [Buparlisib], the figures for the remaining binding at 1 µM at ERBB3, at PIK3C2G and on CLK1 (CLK1) were 100%, 97% and 42%, respectively. Moreover, the remaining binding at 10 µM at ERBB3 is 90%; on PIK3C2G, 35%; at CLK1 (CLK1, 10 µM, read-out: % of control at 10 µM), 5.3%. Also, the “binding to CLK1” value on CLK1 (10 μM) was greater than 80%.

As to `Cn1c(=O)n(-c2ccc(C(C)(C)C#N)cc2)c2c3cc(-c4cnc5ccccc5c4)ccc3ncc21` [Dactolisib, 2-methyl-2-[4-(3-methyl-2-oxo-8-quinolin-3-yl-2,3-dihydroimidazo[4,5-c]quinolin-1-yl)-phenyl] propionitrile], the inhibition at 1 µM on ERBB3 (1 μM), at PIK3C2G (1 μM) and against CLK1 (1 μM) was greater than 80% throughout. Besides, the remaining binding at 1 µM at ERBB3 came out at 9.2%; at PIK3C2G, 0%; on CLK1 (CLK1), 13%. Moreover, the remaining activity at 1 µM came to 5.5% on panel of 442 kinases [1]; 0% at panel of 442 kinases [2]; 9.2% on panel of 442 kinases [3]; 6.4% on panel of 442 kinases [4]; 1.4% on panel of 442 kinases [5]; 0.15% at panel of 442 kinases [6]. Also, the remaining activity at 1 µM amounted to 8.1% on panel of 442 kinases [7] and 3.8% at panel of 442 kinases [8].

For `COc1ncc(-c2ccc3nccc(-c4ccnnc4)c3c2)cc1NS(=O)(=O)c1ccc(F)cc1F` [Omipalisib], the figures for the remaining binding at 1 µM on ERBB3, at PIK3C2G and on CLK1 (CLK1) were 95%, 0% and 96%, respectively. For the same compound, the “off-target binding to PIK3C2G” value on PIK3C2G (1 μM) is recorded as “non-selective”. In addition, the remaining activity at 1 µM on panel of 442 kinases [9] was found to be 0.1%; on panel of 442 kinases [1] it was 0.1%; at panel of 442 kinases [2] it was 3.8%; on panel of 442 kinases [3], 0%; on panel of 442 kinases [4], 0.05%; on panel of 442 kinases [5], 0%. For the same compound, the remaining activity at 1 µM at panel of 442 kinases [10] was determined as 0%; at panel of 442 kinases [6] it was 5.6%; at panel of 442 kinases [7] it was 0%; on panel of 442 kinases [8] it was 0%. The same compound had an IC50 at PI3Kγ of 1.2 ± 0.2 nM.

`CS(=O)(=O)N1CCN(Cc2cc3nc(-c4cccc5[nH]ncc45)nc(N4CCOCC4)c3s2)CC1` [Pictilisib, 2-(1H-indazol-4-yl)-6-(4-methanesulfonyl-piperazin-1-ylmethyl)-4-morpholin-4-yl-t hieno[3,2-d]pyrimidine]: the figures for the remaining binding at 1 µM at ERBB3 and on PIK3C2G were 100% and 32%, respectively. For the same compound, the figures for the remaining binding at 10 µM on ERBB3 and on PIK3C2G were 96% and 2.1%, respectively. In addition, the “off-target activity against PIK3C2G” value at PIK3C2G (10 μM) is reported as “active”.

Consider `FC(F)c1nc2ccccc2n1-c1nc(N2CCOCC2)nc(N2CCOCC2)n1` [ZSTK474, 2-(difluoromethyl)-1-[4,6-di(4-morpholinyl)-1,3,5-triazin-2-yl]-1H-benzimidazole], for which the remaining binding at 1 µM at ERBB3 was 24%; on PIK3C2G, 0%; at CLK1 (CLK1), 100%. The “off-target binding to PIK3C2G” value at PIK3C2G (1 μM) was “high binding affinity”. For the same compound, on mTOR, the midpoint of inhibition, the IC50, lay at 102 ± 19 nM. Besides, the remaining activity at 1 µM at panel of 442 kinases [11] stood at 56%.

By inhibition is commonly meant the relative decrease from the control value, in per cent. Read a high inhibition as a response far below the control. One may read the IC50 as the midpoint of a concentration-inhibition curve. Read a low IC50 as inhibition by little substance.
